{
  "source": "patent US20040259853A1",
  "about": "“Methods for preventing acute clinical vascular events in a subject” (The Trustees of Columbia University, priority 2000, published 2004)",
  "key": {"[1]": {"system": "cholesterol trafficking to the endoplasmic reticulum", "experiment": "Whole-cell cholesterol esterification assay (cholesterol trafficking to ER membranes)", "type": "cell-based, mouse", "protocol": "Shown is the mean±S.E.M (n=3) of [^3H]cholesteryl ester formed (in cpm/mg cell protein).\nMacrophages were incubated for 5 h with DMEM, 0.2% BSA containing 50 μg/ml [^3H]cholesterol-labeled acetyl-LDL alone or containing the indicated compounds. Cellular lipids were extracted twice with 0.5 ml of hexane:isopropanol (3:2, v/v), and the cellular content of [^3H]cholesteryl ester was determined using thin-layer chromatography (49). The lipid-extracted cell monolayer was dissolved in 1 ml 1N NaOH and assayed for protein content using the method of Lowry et al. (50)."}, "[2]": {"system": "cholesterol trafficking to the plasma membrane", "experiment": "Cholesterol oxidase assay (plasma membrane cholesterol)", "type": "cell-based, mouse", "protocol": "Shown is the mass (in μg/mg cell protein) of cholesterol (Chol, open bars), which is the cholesterol oxidase-inaccessible pool of intracellular cholesterol, and of cholestenone (CN, striped bars), which is the cholesterol oxidase-accessible pool of plasma membrane cholesterol.\nMacrophages were fixed with 1% glutaraldehyde for 10 min and then incubated for 30 min at 37° C. with 2 U/ml Streptomyces cholesterol oxidase. Cellular lipids were extracted twice with 0.5 ml of hexane:isopropanol (3:2).\nCholesterol and.cholestenone mass in these extracts were determined by gas-liquid chromatography using β-sitosterol as an internal standard. The lipid-extracted cell monolayer was dissolved in 1 ml 1N NaOH and assayed for protein content using the method of Lowry et al. (50)."}, "ER calcium stores": {"system": "ER calcium stores", "experiment": "Assay of ER calcium pools (Fura-2, thapsigargin release)", "type": "cell-based, mouse", "conditions": "70 nM, acetyl-LDL + 58035, 2.5 h (FIG. 18B)", "protocol": "Shown are representative tracings of the 340/380-nm Fura-2 fluorescence ratio in an individual macrophage from each treatment group before and after addition of 1 μM thapsigargin.\nUntreated or cholesterol-loaded macrophages on 25-mm coverslip-containing microscopy dishes were loaded with 4 μM Fura-2 μM (Molecular Probes) and 0.08% Pluronic F-127 in Hank's buffered saline solution (HBSS) at room temperature for 30 min. The monolayers were then washed twice with HBSS, incubated with HBSS for an additional 30 min and mounted on the stage of an inverted Nikon diaphot microscope equipped with a 40× objective. Sulfinpyrazone (250 μM) was included in all solutions to prevent excretion of the Fura-2 by the macrophages. Fluorescence images (510-nm emission following alternate 340-nm and 380-nm excitation) were collected through a charge-coupled device camera (Photon Technology International), and the 340:380 ratio of individual cells in these images was calculated.\nCells exposed to U18666A alone or culture media with no additives served as further control groups. […] Thapsigargin treatment results in emptying of ER calcium stores into the cytosol, which was quantified by fluorescence microscopy, providing a measure of releasable ER calcium stores at the time of thapsigargin addition."}, "ACAT enzyme": {"system": "ACAT enzyme", "conditions": "reference 24; cited from earlier work"}, "[3]": {"system": "unfolded protein response (UPR)", "experiment": "Immunoblot analysis of UPR markers (CHOP, PERK, IRE1α, XBP-1) in macrophages", "quoted_text": "For detection of PERK, nuclei-free cell extracts were immunoprecipitated with anti-PERK antiserum and then immunoblotted, while for detection of ATF-4 and CHOP, immunoblots were performed on nuclear extracts. Lamin B, a nuclear protein, was used as the loading control.\nImmunoprecipitation and immunoblot detection for IRE1α and PERK were conducted as described by Harding et al. (35). Immunoblot analyses of XBP-1, ATF4, and CHOP were carried out as described previously (36,38) with minor modifications. Briefly, cells were lysed in RIPA buffer to prepare whole-cell lysates or to prepare nuclei by centrifugation. The whole-cell lysates or nuclei were resuspended in 2×SDS-PAGE loading buffer and incubated at 95° C. for 10 min. Whole cell (100 μg) or nuclear lysates (20 μg) were electrophoresed on 4-20% gradient SDS-PAGE gels and electrotransferred to 0.22-μm nitrocellulose membrane using a Bio-Rad mini-transfer tank. After incubation with primary antibodies, the protein bands were detected with HRP-conjugated secondary antibodies (Bio-Rad) and ECL (Amersham Pharmacia Biotech). The membranes were reprobed with an anti-β-actin monoclonal antibody or an anti-lamin B serum to control for differences in loading."}},
  "data": [
    {"molecule": "CCN(CC)CCO[C@H]1CC[C@@]2(C)C(=CC[C@@H]3[C@@H]2CC[C@]2(C)C(=O)CC[C@@H]32)C1", "note": "[U18666A, 3-β-[2-(diethylamino)ethoxy]androst-5-en-17-one]", "values": [
      {"measurement": "decrease of cholesterol trafficking to the endoplasmic reticulum", "setting": "[1]; 70 nM (data not shown)", "value": "about 90%"},
      {"measurement": "reduction of re-esterification of ingested cholesterol", "setting": "[1]; low dose (70 nM), 5 h, acetyl-LDL (FIG. 15A)", "value": 90, "unit": "%"},
      {"measurement": "reduction of cholesterol trafficking to the plasma membrane", "setting": "[2]; 70 nM (data not shown)", "value": "about 10%"},
      {"measurement": "accrual of cholesterol in the plasma membrane", "setting": "[2]; low dose (70 nM), cholesterol oxidase accessibility and cyclodextrin extractability (FIG. 15B)", "value": "no effect"},
      {"measurement": "FC-loading-induced depletion of ER calcium stores (smaller thapsigargin-induced rise)", "setting": "ER calcium stores", "value": "completely prevented"},
      {"measurement": "direct inhibitory effect on the ACAT enzyme", "setting": "ACAT enzyme", "value": "no direct inhibitory effect"},
      {"measurement": "IRE1α activation and XBP-1 expression in FC-loaded macrophages", "setting": "[3]; low dose (70 nM) (FIG. 16D, lane 5)", "value": "markedly attenuated both events"},
      {"measurement": "CHOP induction in FC-loaded macrophages", "setting": "[3]; low dose (70 nM), 5 h (FIG. 16A, lane 5)", "value": "attenuated CHOP induction"},
      {"measurement": "PERK activation in FC-loaded macrophages", "setting": "[3]; low dose (70 nM), 5 h (FIG. 16B, lane 5)", "value": "blocked PERK activation"}
    ]}
  ]
}
